Data on four compounds can be found in patent US20070082068A1, “Il-8 production promoters and use thereof” (priority 2003, published 2007).

The subject of data set [1] is IL-8 production by Caco-2 cells. In words: Effect of promoting IL-8 production by Caco-2 cells (sandwich ELISA of culture supernatants). The format is cell-based, human. Particulars: compounds at final concentration 100 μg/ml; 6-hour culture, then 12 hours in additive-free media; differentiated Caco-2 cells; significant difference P<0.01. On the procedure: Caco-2 cells (human colon cancer-derived cell line; American Type Culture Collection, Rockville, Md., U.S.A.) were used as small-intestinal epithelial cell models to evaluate the influence of peppermint, dokudami (houttuynia herb), and licorice extracts on IL-8 production by the cells.
(§1) The Caco-2 cells were subcultured in 24-well plates. The resulting cells were cultured at 37° C. for 14 days under 5% CO2 conditions and thereby differentiated into small-intestinal epithelioid cells. Culture media used were DMEM media (SIGMA Corp.) containing 10% fetal calf serum, 1% non essential amino acid solution, 2% glutamine, 100 U/ml penicillin, and 100 μg/ml streptomycin. A peppermint extract obtained in Example 1, a dokudami (houttuynia herb) extract obtained in Example 2, and a licorice extract obtained in Example 3 were added at each final concentration of 100 μg/ml to the media, and the cells were cultured therein. After 6-hour culture, the media were replaced with additive-free media, followed by additional culture for 12 hours. The resulting culture supernatants were subjected to sandwich ELISA assay (Eckmann, L., et al., Gastroenterology, 105, 1689-1697, 1993) to quantify the amount of IL-8 in the culture supernatants.
Caco-2 cells (human colon cancer-derived cell line; American Type Culture Collection, Rockville, Md., U.S.A.) were used as small-intestinal epithelial cell models to evaluate the influence of α-humulene, α-pinene, β-pinene and L-menthol on IL-8 production by the cells.
as §1, with “5% Co2” for “5% CO2”, “streptomycin. α-humulene (SIGMA Corp.), α-pinene (SIGMA Corp.), β-pinene (SIGMA Corp.),” for “streptomycin. A peppermint extract obtained in Example 1, a dokudami (houttuynia herb) extract obtained in Example 2,”, “and L-menthol (SIGMA Corp.)” for “and a licorice extract obtained in Example 3”, “media was” for “media were”, “assay” for “assay (Eckmann, L., et al., Gastroenterology, 105, 1689-1697, 1993)”

For the next data set, the system named is Caco-2 cells. Briefly: Evaluation of cytotoxicity by LDH (lactate dehydrogenase) assay. Format: cell-based. The note with it: 100 μg/ml; 24 hours; differentiated Caco-2 cells. As for the experimental part:
The cytotoxicity of peppermint, dokudami (houttuynia herb), licorice extracts was evaluated with Caco-2 cells. The Caco-2 cells differentiated into small-intestinal epithelioid cells in the same way as in Example 4 were cultured for 24 hours in media containing the peppermint, dokudami (houttuynia herb), and licorice extracts at each final concentration of 100 μg/ml. Subsequently, the media were removed, and the resulting cells were washed twice with PBS (phosphate buffered saline) (−) (Nissui Co., Ltd.). The cells were further supplemented with 700 μl of PBS (−) and left undisturbed at 37° C. for 2 hours. […] In summary, this assay is a method for quantifying cytotoxicity based on the activity of LDH released from dead cells by colormetrically determining formazan converted from a tetrazolium salt serving as a coloring reagent. The rate of free LDH (%) was calculated according to the equation below by using the LDH concentration in the collected PBS (−) as the amount of free LDH and the LDH concentration in the cell lysate as the amount of intracellular LDH. […]
The cytotoxicity of α-humulene was evaluated with Caco-2 cells. […] The rate of free LDH (6) was calculated according to the equation below by using the LDH concentration in the collected PBS (—) as the amount of free LDH and the LDH concentration in the cell lysate as the amount of intracellular LDH. […]

In the case of `CC(C)[C@@H]1CC[C@@H](C)C[C@H]1O` [L-menthol], the “IL-8 production by the Caco-2 cells (relative IL-8 concentration to a control, FIG. 2)” value (shortened to “relative IL-8 concentration to a control”) in data set [1] is given as “remarkably promoted IL-8 production”. `C/C1=C\CC/C(C)=C/CC(C)(C)/C=C/C1` [α-humulene]: the “Cytotoxicity (rate of free LDH vs control, FIG. 4)” value in the data set with Caco-2 cells is on record as “no cytotoxicity”. Moreover, the “relative IL-8 concentration to a control” value in data set [1] is listed as “remarkably promoted IL-8 production”.

In the case of `CC1=CC[C@H]2C[C@@H]1C2(C)C` [α-pinene], in data set [1], the “relative IL-8 concentration to a control” value is recorded as “remarkably promoted IL-8 production”. The same measure, in the same setting: under `C=C1CC[C@@H]2C[C@H]1C2(C)C` [β-pinene] stands “remarkably promoted IL-8 production”.
